Experimental data taken from patent publication US6362207B1, “Methods of treating viral infections with benzimidazoles” (priority 1995, dated 2002).

Tested on: Pancreas (Mia-PaCa)
Assay: Pancreas (Mia-PaCa) model, tumor weight
Format: in vivo, mice
Settings: 80 mg/kg i.p. on days 1,4,7 and 10; c1 = day 40
Experimental: The dose response effect of carbendazim in mice infected with various cancer types was studied in standard screening tests.
The results of these studies conducted to study the dosage response of carbendazim on various cancer types are summarized below. […] Efficacy of carbendazim has been shown in the following cancers:
In the Pancreas (Mia-PaCa) model, carbendazim at 3000 and 4000 (mg/kg, twice weekly) is as good as or better than gemcitabine. At 2000 mg/kg the carbendazim was not as effective after 21 days. Gemcitabine was given on days 1,4,7 and 10 i.p.; the carbendazim was given p.o. twice weekly.

Nc1ccn([C@@H]2O[C@H](CO)[C@@H](O)C2(F)F)c(=O)n1 [Gemcitabine, reference compound]
tumor weight: 503.7 mg
